≈ marks a conversion by molar mass, not a printed value.
What was measured:
[1] = system: Staphylococcus aureus; assay: Antibacterial activity against Staphylococcus aureus ATCC 25923 after 18 to 24 hrs by standard twofold serial dilution method; format: functional
[2] = system: Staphylococcus aureus; assay: Antibacterial activity against methicillin-sensitive Staphylococcus aureus 12-5 after 18 to 24 hrs by standard twofold serial dilution method; format: functional
[3] = system: Klebsiella pneumoniae; assay: Antibacterial activity against Klebsiella pneumoniae 12-1 infected in mouse dosed orally twice at 0 and 6 hrs after infection; format: functional; conditions: 12-1, po
[4] = system: Staphylococcus aureus; assay: Antibacterial activity against methicillin-sensitive Staphylococcus aureus 12-1 infected in mouse dosed orally twice at 0 and 6 hrs after infection; format: functional; conditions: 12-1, po
[5] = system: Mycobacterium tuberculosis; assay: Antimycobacterial activity against Mycobacterium tuberculosis H37Rv ATCC 27294 by MABA method; format: functional
[6] = system: Staphylococcus aureus; assay: Antibacterial activity against methicillin-resistant Staphylococcus aureus 12-5 after 18 to 24 hrs by standard twofold serial dilution method; format: functional
[7] = system: Streptococcus pneumoniae; assay: Antibacterial activity against Streptococcus pneumoniae 12-18 after 18 to 24 hrs by standard twofold serial dilution method; format: functional
[8] = system: Staphylococcus epidermidis; assay: Antibacterial activity against methicillin-resistant Staphylococcus epidermidis 12-6 after 18 to 24 hrs by standard twofold serial dilution method; format: functional
[9] = system: Escherichia coli; assay: Antibacterial activity against extended-spectrum beta-lactamase producing Escherichia coli 12-15 after 18 to 24 hrs by standard twofold serial dilution method; format: functional
[10] = system: Klebsiella pneumoniae; assay: Antibacterial activity against Klebsiella pneumoniae 12-2 after 18 to 24 hrs by standard twofold serial dilution method; format: functional
[11] = system: Streptococcus pneumoniae; assay: Antibacterial activity against Streptococcus pneumoniae 12-10 infected in mouse dosed orally twice at 0 and 6 hrs after infection; format: functional; conditions: 12-10, po
[12] = system: Escherichia coli; assay: Antibacterial activity against extended-spectrum beta-lactamase producing Escherichia coli 12-14 after 18 to 24 hrs by standard twofold serial dilution method; format: functional
[13] = Solubility of the compound; format: physicochemical
[14] = system: Pseudomonas aeruginosa; assay: Antibacterial activity against Pseudomonas aeruginosa 12-14 after 18 to 24 hrs by standard twofold serial dilution method; format: functional
[15] = system: Staphylococcus aureus; assay: Antibacterial activity against methicillin-sensitive Staphylococcus aureus 12-2 after 18 to 24 hrs by standard twofold serial dilution method; format: functional
[16] = system: Klebsiella pneumoniae; assay: Antibacterial activity against extended-spectrum beta-lactamase producin Klebsiella pneumoniae 12-3 after 18 to 24 hrs by standard twofold serial dilution method; format: functional
[17] = system: Staphylococcus aureus; assay: Antibacterial activity against methicillin-resistant Staphylococcus aureus 12-5 infected in mouse dosed orally twice at 0 and 6 hrs after infection; format: functional; conditions: 12-5, po
[18] = system: Staphylococcus aureus; assay: Antibacterial activity against methicillin-resistant Staphylococcus aureus 12-2 after 18 to 24 hrs by standard twofold serial dilution method; format: functional
[19] = system: Pseudomonas aeruginosa; assay: Antibacterial activity against Pseudomonas aeruginosa 12-12 after 18 to 24 hrs by standard twofold serial dilution method; format: functional
[20] = system: Escherichia coli; assay: Antibacterial activity against Escherichia coli 12-1 infected in mouse dosed orally twice at 0 and 6 hrs after infection; format: functional; conditions: 12-1, po
[21] = system: Staphylococcus aureus; assay: Antibacterial activity against methicillin-sensitive Staphylococcus aureus 12-1 after 18 to 24 hrs by standard twofold serial dilution method; format: functional
[22] = system: Staphylococcus aureus; assay: Antibacterial activity against methicillin-sensitive Staphylococcus aureus 12-4 after 18 to 24 hrs by standard twofold serial dilution method; format: functional
[23] = system: Staphylococcus epidermidis; assay: Antibacterial activity against methicillin-sensitive Staphylococcus epidermidis 12-8 after 18 to 24 hrs by standard twofold serial dilution method; format: functional
[24] = system: Escherichia coli; assay: Antibacterial activity against Escherichia coli 12-1 after 18 to 24 hrs by standard twofold serial dilution method; format: functional
[25] = system: Staphylococcus epidermidis; assay: Antibacterial activity against methicillin-resistant Staphylococcus epidermidis 12-1 infected in mouse dosed orally twice at 0 and 6 hrs after infection; format: functional; conditions: 12-1, po
[26] = system: Escherichia coli; assay: Antibacterial activity against extended-spectrum beta-lactamase producing Escherichia coli 12-2 after 18 to 24 hrs by standard twofold serial dilution method; format: functional
[27] = system: Staphylococcus epidermidis; assay: Antibacterial activity against methicillin-sensitive Staphylococcus epidermidis 12-6 after 18 to 24 hrs by standard twofold serial dilution method; format: functional
[28] = system: Staphylococcus aureus; assay: Antibacterial activity against methicillin-resistant Staphylococcus aureus 12-4 after 18 to 24 hrs by standard twofold serial dilution method; format: functional
[29] = system: Klebsiella pneumoniae; assay: Antibacterial activity against extended-spectrum beta-lactamase producin Klebsiella pneumoniae 12-7 after 18 to 24 hrs by standard twofold serial dilution method; format: functional
[30] = system: Klebsiella pneumoniae; assay: Antibacterial activity against extended-spectrum beta-lactamase producin Klebsiella pneumoniae 12-14 after 18 to 24 hrs by standard twofold serial dilution method; format: functional
[31] = system: Klebsiella pneumoniae; assay: Antibacterial activity against Klebsiella pneumoniae 12-4 after 18 to 24 hrs by standard twofold serial dilution method; format: functional
[32] = system: Klebsiella pneumoniae; assay: Antibacterial activity against extended-spectrum beta-lactamase producin Klebsiella pneumoniae 12-4 after 18 to 24 hrs by standard twofold serial dilution method; format: functional
[33] = system: Staphylococcus epidermidis; assay: Antibacterial activity against methicillin-sensitive Staphylococcus epidermidis 12-3 after 18 to 24 hrs by standard twofold serial dilution method; format: functional
[34] = system: Streptococcus pneumoniae; assay: Antibacterial activity against Streptococcus pneumoniae ATCC 49619 after 18 to 24 hrs by standard twofold serial dilution method; format: functional
[35] = system: Klebsiella pneumoniae; assay: Antibacterial activity against Klebsiella pneumoniae 12-1 after 18 to 24 hrs by standard twofold serial dilution method; format: functional
[36] = system: Staphylococcus epidermidis; assay: Antibacterial activity against methicillin-sensitive Staphylococcus epidermidis 12-1 after 18 to 24 hrs by standard twofold serial dilution method; format: functional
[37] = system: Staphylococcus epidermidis; assay: Antibacterial activity against methicillin-resistant Staphylococcus epidermidis 12-1 after 18 to 24 hrs by standard twofold serial dilution method; format: functional
[38] = system: Escherichia coli; assay: Antibacterial activity against Escherichia coli ATCC 25922 after 18 to 24 hrs by standard twofold serial dilution method; format: functional
[39] = system: Escherichia coli; assay: Antibacterial activity against extended-spectrum beta-lactamase producing Escherichia coli 12-3 after 18 to 24 hrs by standard twofold serial dilution method; format: functional

Row | SMILES | MIC [1] | MIC [2] | ED50 [4] | MIC [5] | MIC [6] | MIC [7] | MIC [8] | MIC [9] | MIC [10] | MIC [12] | solubility [13] | MIC [14] | MIC [15] | MIC [16] | MIC [18] | MIC [19] | ED50 [20] | MIC [21] | MIC [22] | MIC [23] | also measured
1 | CO/N=C1/CCN(c2c(F)cc3c(=O)c(C(=O)O)cn([C@@H]4C[C@@H]4F)c3c2OC)CC1N (some centres undefined) | 0.015 µg/mL (≈ 0.0344 µM) | < 0.008 µg/mL | 11.4 mg/kg | 0.25 µg/mL (≈ 0.573 µM) | 2 µg/mL (≈ 4.58 µM) | 1 µg/mL (≈ 2.29 µM) | 1 µg/mL (≈ 2.29 µM) | 32 µg/mL (≈ 73.3 µM) | 0.5 µg/mL (≈ 1.15 µM) | 16 µg/mL (≈ 36.7 µM) | 3590 µg/mL (≈ 8230 µM) | 4 µg/mL (≈ 9.17 µM) | < 0.008 µg/mL | 16 µg/mL (≈ 36.7 µM) | 2 µg/mL (≈ 4.58 µM) | 4 µg/mL (≈ 9.17 µM) | 12.1 mg/kg | < 0.008 µg/mL | < 0.008 µg/mL | 0.25 µg/mL (≈ 0.573 µM) | ED50 [3]: 21.1 mg/kg; ED50 [11]: 25.3 mg/kg; ED50 [17]: 26 mg/kg; MIC [24]: 0.5 µg/mL (≈ 1.15 µM); ED50 [25]: 25.4 mg/kg; MIC [26]: 32 µg/mL (≈ 73.3 µM); MIC [27]: < 0.008 µg/mL; MIC [28]: 2 µg/mL (≈ 4.58 µM); MIC [29]: 2 µg/mL (≈ 4.58 µM); MIC [30]: 64 µg/mL (≈ 147 µM); MIC [31]: 0.5 µg/mL (≈ 1.15 µM); MIC [32]: 16 µg/mL (≈ 36.7 µM); MIC [33]: < 0.008 µg/mL; MIC [34]: 0.125 µg/mL (≈ 0.286 µM); MIC [35]: 0.25 µg/mL (≈ 0.573 µM); MIC [36]: < 0.008 µg/mL; MIC [37]: 0.5 µg/mL (≈ 1.15 µM); MIC [38]: 0.06 µg/mL (≈ 0.137 µM); MIC [39]: 32 µg/mL (≈ 73.3 µM)
2 | NCC1CN(c2nc3c(cc2F)c(=O)c(C(=O)O)cn3[C@@H]2C[C@@H]2F)C/C1=N/OCc1ccccc1 (some centres undefined) | < 0.008 µg/mL | < 0.008 µg/mL | 16.9 mg/kg | 0.5 µg/mL (≈ 1.03 µM) | 1 µg/mL (≈ 2.07 µM) | 0.25 µg/mL (≈ 0.517 µM) | 2 µg/mL (≈ 4.14 µM) | 128 µg/mL (≈ 265 µM) | 0.125 µg/mL (≈ 0.259 µM) | 16 µg/mL (≈ 33.1 µM) | 240 µg/mL (≈ 496 µM) | 1 µg/mL (≈ 2.07 µM) | < 0.008 µg/mL | 16 µg/mL (≈ 33.1 µM) | 1 µg/mL (≈ 2.07 µM) | 1 µg/mL (≈ 2.07 µM) | 18 mg/kg | < 0.008 µg/mL | < 0.008 µg/mL | 0.125 µg/mL (≈ 0.259 µM) | MIC [24]: 0.125 µg/mL (≈ 0.259 µM); MIC [26]: 64 µg/mL (≈ 132 µM); MIC [27]: < 0.008 µg/mL; MIC [28]: 2 µg/mL (≈ 4.14 µM); MIC [29]: 1 µg/mL (≈ 2.07 µM); MIC [30]: 32 µg/mL (≈ 66.2 µM); MIC [31]: 0.06 µg/mL (≈ 0.124 µM); MIC [32]: 16 µg/mL (≈ 33.1 µM); MIC [33]: < 0.008 µg/mL; MIC [34]: 0.03 µg/mL (≈ 0.0621 µM); MIC [35]: 0.03 µg/mL (≈ 0.0621 µM); MIC [36]: < 0.008 µg/mL; MIC [37]: 0.25 µg/mL (≈ 0.517 µM); MIC [38]: < 0.008 µg/mL; MIC [39]: 16 µg/mL (≈ 33.1 µM)

Source: ChEMBL document CHEMBL3352227, “Synthesis, antimycobacterial and antibacterial evaluation of l-[(1R, 2S)-2-fluorocyclopropyl]fluoroquinolone derivatives containing an oxime functional moiety” (Eur J Med Chem, 2014)
